Results taken from PMC11188199, “Development and validation of a generic methyltransferase enzymatic assay based on an SAH riboswitch” (SLAS discovery : advancing life sciences R & D, 2024).
pEC50, pIC50, pKd, pKi: −log10 of the molar value.

Legend:
nsp14 [1] = target: T1, nsp14 (Severe acute respiratory syndrome coronavirus 2, UniProt P0DTD1)
PRMT5 [2] = test system: PRMT5; parameters: method as in PMID 25915199; details: read-out: IC50 (published value); cited from earlier work
PRMT5 [3] = target: PRMT5; parameters: method as in PMID 34583982; details: RapidFire MS SAH detection; read-out: kiApp; cited from earlier work
Dar-1 split aptamer = experiment: Split aptamer SAH assay with TR-FRET readout (AptaFluor), equilibrium binding; parameters: species or system D. aromatica; details: for pEC50: n = 3, plates read at 3 hr
SAH riboswitches = target: SAH riboswitches; parameters: method as in PMID 18374645; details: native SAH riboswitch; cited from earlier work
[4] = test system: split Dar-1 riboswitch (Dar1 P1/P2); experiment: Split aptamer SAH assay with FP readout; assay type: binding, D. aromatica
Description: Based on a literature review and preliminary testing, an SAH riboswitch from D. aromatica (Dar-1) was chosen for development of a split aptamer-based assay. […] We tested these configurations with a far red fluor on the shorter P2 element, allowing FP-based detection (Fig. 1A). […] Generally, a shift of at least 100 mP @ ≤ 10 % substrate conversion is desirable for HTS. It is likely that the FP signal is limited by the relatively modest difference in size between the free P2 RNA and the liganded P1–P2 complex. In this regard, attachment of one half of a split DNA aptamer to a silver nanoparticle produced a lactoferrin sensor with a signal greater than 100 mP [32]; to our knowledge, this is the only other example of a split aptamer-based assay with an FP readout. Attempts to use a similar approach by attaching Streptavidin to the P1 oligomer were not successful (data not shown).
Fig. 1. Split aptamer SAH assay with FP readout. A. SAH dependent assembly of split aptamer (Dar1 P1/P2) causes increase in polarization of a fluor attached to the P2 element. B. SAH titration, showing concentration dependence and stability of signal. C. Comparison of response to SAH, SAM and ATP. D. Standard curve mimicking enzymatic conversion of 200 nM SAM to SAH. E. Titration of PRMT3 in the presence of 500 nM SAM and Histone H4 peptide substrate. […]

nsp14 [5] = target: T1, nsp14; details: read-out: SAM Km; cited from earlier work
METTL3/METTL14 = details: cited from earlier work
[6] = test system: C[S+](CC[C@H](N)C(=O)[O-])C[C@H]1O[C@@H](n2cnc3c(N)ncnc32)[C@H](O)[C@@H]1O; experiment: purified protein, by the assay type; details: other: data not shown

CC1(C)C(=O)N=C2C1=C(O)C(=O)c1ccccc12 [BVT-948]
inhibition of nsp14 enzymatic activity in dose response mode (nsp14 [1]): dose-dependent response

O=C(NC[C@H](O)CN1CCc2ccccc2C1)c1ccnc(NC2CCC2)c1 [GSK591]
pIC50 (PRMT5 [2]): 7.66

Nc1nc2cc(CC[C@H]3C[C@@H](n4ccc5c(N)ncnc54)[C@H](O)[C@@H]3O)ccc2cc1Br [JNJ64619178]
pKi (PRMT5 [3]): 9.11

O=C1C(Cl)=C(NCCN2CCOCC2)C(=O)c2ncccc21 [NSC-663284]
inhibition of nsp14 enzymatic activity in dose response mode (nsp14 [1]): dose-dependent response

Nc1ncnc2c1ncn2[C@@H]1O[C@H](CSCC[C@H](N)C(=O)O)[C@@H](O)[C@H]1O [SAH, S-adenosylhomocysteine]
observed selectivity (SAH vs SAM) (Dar-1 split aptamer; highly purified preparation of SAM): more than 1000 fold
pEC50 (Dar-1 split aptamer): 7.70
pKd (SAH riboswitches): 7.70
selectivity vs. SAM [4]: greater than 200 fold
pKd ([4]; split aptamer construct): 7.66

C[S+](CC[C@H](N)C(=O)[O-])C[C@H]1O[C@@H](n2cnc3c(N)ncnc32)[C@H](O)[C@@H]1O (stereo partly shown) [SAM, S-adenosylmethionine]
Km (nsp14 [5]): 0.257 µM
Km (METTL3/METTL14; ssRNA substrate similar to the 28mer, read-out: SAM Km): ~0.2 µM
pEC50 (Dar-1 split aptamer): 4.64
affinity fold lower than for SAH (SAH riboswitches): at least 1000 fold

CNc1cc(N2CCC3(CC2)CN(c2cc(F)c(CN4CCC(C)(C)CC4)cc2F)CC(=O)N3)ncn1 [UZH2, reference compound]
pIC50 (METTL3/METTL14; read-out: IC50 (published value)): 8.30

Nc1ncnc2c1ncn2[C@@H]1O[C@H](CO)[C@@H](O)[C@H]1O [adenosine]
pEC50 (Dar-1 split aptamer): 3.97

nsp14 (Severe acute respiratory syndrome coronavirus 2)
Km [6]: 0.06 µM
